# PubChem BioAssay (NCI)
# Several values for one entry are separate records, joined by “and”; a condition that tells them apart may be missing. Equal values may be shown once.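 Five concentrations, 48 hours, 96-well plates. The concentration for 50% growth inhibition is given as GI50. TGI: concentration producing complete growth inhibition.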
# Columns and labels:
# Assay in all cases: NCI-60 cell line screen, 48 h
# 786-0 renal = tested on: 786-0 renal
# COLO 205 colon = tested on: COLO 205 colon
# HCT-116 colon = tested on: HCT-116 colon
# HOP-92 NSCLC = tested on: HOP-92 NSCLC
# HS 578T breast = tested on: HS 578T breast
# LOX IMVI melanoma = tested on: LOX IMVI melanoma
# M14 melanoma = tested on: M14 melanoma
# NCI-H460 lung = tested on: NCI-H460 lung
# SK-MEL-2 melanoma = tested on: SK-MEL-2 melanoma
# SK-MEL-28 melanoma = tested on: SK-MEL-28 melanoma
Compound,GI50 (786-0 renal),TGI (786-0 renal),GI50 (COLO 205 colon),TGI (COLO 205 colon) [nM],GI50 (HCT-116 colon),TGI (HCT-116 colon) [nM],GI50 (HOP-92 NSCLC) [nM],TGI (HOP-92 NSCLC),GI50 (HS 578T breast),TGI (HS 578T breast),GI50 (LOX IMVI melanoma),TGI (LOX IMVI melanoma),GI50 (M14 melanoma),TGI (M14 melanoma) [nM],GI50 (NCI-H460 lung) [nM],TGI (NCI-H460 lung) [nM],GI50 (SK-MEL-2 melanoma),TGI (SK-MEL-2 melanoma),GI50 (SK-MEL-28 melanoma),TGI (SK-MEL-28 melanoma) [nM]
CC1SC(c2cccs2)N(NC(=O)C(O)c2ccccc2)C1=O (stereo unspecified),> 100000 nM,> 100000 nM,> 100000 nM,> 100000,> 100000 nM,> 100000,> 100000,> 100000 nM,> 100000 nM,> 100000 nM,> 100000 nM,> 100000 nM,> 100000 nM,> 100000,> 100000,> 100000,> 100000 nM,> 100000 nM,> 100000 nM,> 100000
COc1ccccc1Nc1nc(-c2cc3cccc(C(F)(F)F)c3oc2=O)cs1,218 nM,> 42900 nM,172 nM,522,80.5 nM,11100,112,33100 nM,277 nM,> 81200 nM,140 nM,> 82200 nM,111 nM,,218,> 39500,262 nM,> 100000 nM,1640 nM,> 100000
O=Nc1c(-c2cccc([N+](=O)[O-])c2)nc2ncccn12,17600 nM,54700 nM,6250 nM,19900,3030 nM,13300,3190,21600 nM,12800 nM,47400 nM,11600 nM,27000 nM,12000 nM,26800,17800,54800,14700 nM,38100 nM,15200 nM,30200
O=C1c2cc3c(cc2-c2c1c1ccc([N+](=O)[O-])cc1c(=O)n2CCCCl)OCO3,198 nM,> 100000 nM,567 nM,> 100000,6380 nM,> 100000,,> 100000 nM,> 100000 nM,> 100000 nM,74.2 nM,> 100000 nM,1520 nM,> 100000,27.7,> 100000,> 100000 nM,> 100000 nM,525 nM,> 100000
Cn1c(=O)c(F)c(Nc2ccc(I)cc2F)c2c(=O)n(C[C@@H](O)CO)cnc21,4590 nM and 1300 nM,21400 nM and > 4580 nM,< 10 nM and 2.71 nM,,< 10 nM and 8.32 nM,11500,< 10,87 nM and 179 nM,5170 nM and 1210 nM,54600 nM and > 3970 nM,46.9 nM and 19.8 nM,12500 nM and > 3380 nM,< 10 nM and 1.75 nM,21.1,,> 100000,< 10 nM and 2.95 nM,< 25.2 nM and 27.7 nM,< 10 nM and 3.01 nM,
COc1ccc2c(CNCCCCO)cc3cc4c(cc3c2c1)OCO4,1630 nM,> 32200 nM,1360 nM,4410,609 nM,9500,598,4400 nM,929 nM,4100 nM,1250 nM,5370 nM,2070 nM,4680,,,1630 nM,3930 nM,4930 nM,11000
CSC(=S)N/N=C(\C)c1ccccn1,315 nM,12500 nM,< 10 nM,11900,< 10 nM,5280,1390,26100 nM,2820 nM,36300 nM,206 nM,12600 nM,99.7 nM,2330,289,1230,329 nM,3750 nM,429 nM,17500
C=C1C(=O)O[C@H]2[C@H]1CC/C(COC(=O)CCC(=O)OC/C1=C/CC[C@@]3(C)O[C@H]3[C@H]3OC(=O)C(=C)[C@@H]3CC1)=C\CC[C@@]1(C)O[C@@H]21,1460 nM,3120 nM,455 nM,1740,,,710,2380 nM,2740 nM,16000 nM,1370 nM,2750 nM,1600 nM,5320,4480,17200,2890 nM,9380 nM,1530 nM,3970
C[n+]1c2ccccc2c(NC2CCNCC2)c2[nH]c3ccccc3c21,2460 nM,16300 nM,264 nM,2000,812 nM,4530,1150,6860 nM,116 nM,820 nM,1680 nM,5520 nM,2410 nM,13400,223,1530,207 nM,1220 nM,1030 nM,2950
CN(C)CCn1cc(-c2ccc3c(Nc4ccc(CC(=O)Nc5cccc(F)c5)cc4)ncnc3c2)cn1,1420 nM,2870 nM,55.9 nM,3220,1260 nM,2720,6270,> 10000 nM,1920 nM,> 10000 nM,1330 nM,3020 nM,1490 nM,3260,87,2490,> 10000 nM,> 10000 nM,1610 nM,3020
O=C1/C(=C/c2ccc(O)cc2)CCC1CNc1ccc(Cl)cc1 (stereo unspecified),,4580 nM,,3240,,5770,,28400 nM,,> 100000 nM,,7240 nM,,3570,,23000,,28700 nM,,24200
O=C1c2cccc3cccc(c23)C(=O)N1CCCCOc1ccc(-c2nc3ccc(N4CCOCC4)cc3[nH]2)cc1,1280 nM,2680 nM,3780 nM,13700,1760 nM,3320,2000,4370 nM,2160 nM,14700 nM,2110 nM,4530 nM,2880 nM,7550,3420,16100,15700 nM,53600 nM,1420 nM,2860
CCOc1ccc2c(c1)/C(=C\C=C\C1CC(C)C3CC(OCC)CCC3N1CC)CC(C)N2CC (stereo unspecified),1490 nM,2980 nM,1360 nM,2820,789 nM,2170,1210,2580 nM,1590 nM,6810 nM,871 nM,2270 nM,1430 nM,3000,416,1640,1660 nM,3350 nM,1360 nM,2860
